Where a SMILES comes first, the peptide text is derived from it.
System: 4T1 mammary carcinoma tumor
Experiment: In vivo antitumor efficacy, 4T1 mammary carcinoma tumor model
Design: species or system Female BALB/c mice
Method: Female BALB/c mice (5–7 weeks) were purchased from the Laboratory Animal Center of the Iran Pasteur Institute and maintained under standardized environmental conditions: 12 h light-dark phases, with free access to food and water. For treatment with VGB3, Tumor cells (4T1; 1×10^6 cells/500 μl or 1×10^5 cells/50 μl) were injected subcutaneously into the right flanks of mice (n=3–5). To generate the metastatic model, 4T1 tumor models were sterilized, excised from the breast cancer-bearing BALB/c mice, cut into pieces of <0.3 cm3, and subcutaneously implanted into the animals' right flanks under ketamine (100 mg/kg, i.p.) and xylazine (10 mg/kg, i.p.) anesthesia. Animals carrying tumors of size ~100mm3 were randomized to 6 mice/group (n=6). The treatment groups received 0.02, 0.1, 0.2 or 0.5 mg/kg of VGB3 on alternate days and the control group received PBS i.v. into the mice for 19 days from day 13. The tumor volume was measured every 5 days by a digital Vernier caliper (Mitutoyo, Japan), using the following formula: v=a^2×b×0.52 (where a is the shortest and b is the longest diameter). All studies were performed under the guidelines and with the approval of the Institutional Animal Care and Use Committee (IACUC) of Tehran University of Medical Sciences.

Structure (SMILES): CC(C)C[C@@H]1NC(=O)CNC(=O)[C@H](CC(=O)O)NC(=O)[C@H](CC(=O)O)NC(=O)[C@@H]2CCCN2C(=O)[C@@H]2CCCN2C(=O)[C@H](CCCNC(=N)N)NC(=O)[C@@H](NC(=O)[C@@H](N)CCC(=O)O)CSSC[C@@H](C(=O)O)NC1=O [VGB3] (HELM PEPTIDE1{E.C.R.P.P.D.D.G.L.C}$PEPTIDE1,PEPTIDE1,2:R3-10:R3$$$V2.0)
- inhibitory effects on tumor growth and angiogenesis compared with bevacizumab (VGB3 0.2 mg/kg i.v. once in every 2 days vs reported bevacizumab 2 mg/kg, twice per week): definitely higher
- tumor growth inhibition vs PBS control (i.v., alternate days, 19 days from day 13, n = 6, dose of the statement not specified): Significant inhibition of tumor growth

Reference: paper PMC7272640, “Molecular docking, synthesis and biological evaluation of Vascular Endothelial Growth Factor (VEGF) B based peptide as antiangiogenic agent targeting the second domain of the Vascular Endothelial Growth Factor Receptor 1 (VEGFR1D2) for anticancer application” (Signal Transduction and Targeted Therapy, 2020)
